Measurements: patent US20090264452A1 (priority 2004, published 2009)
Counter-ions that a name gives are not always drawn.

Target: T1, human cannabinoid CB2 receptor (Homo sapiens, UniProt P34972)
T1 construct: expressed in transfected cells; host or cells: Saccharomyces cerevisiae strain MMY23 (integration at the ura3 locus, GPD promoter)
Assay: Cannabinoid CB2 receptor agonist activity, yeast reporter assay
Assay type: cell-based
Conditions: for Emax: relative to HU210, yeast cells expressing human CB2, read-out: efficacy value (Emax) at the cloned human cannabinoid CB2 receptor; for EC50: yeast (Saccharomyces cerevisiae) cells expressing human CB2, agonist, read-out: EC50 at the cloned human cannabinoid CB2 receptor
Protocol: The cannabinoid CB2 receptor agonist activity of the compounds of formula (I) was determined in accordance with the following experimental method.
Yeast (Saccharomyces cerevisiae) cells expressing the human cannabinoid CB2 receptor were generated by integration of an expression cassette into the ura3 chromosomal locus of yeast strain MMY23. This cassette consisted of DNA sequence encoding the human CB2 receptor flanked by the yeast GPD promoter to the 5′ end of CB2 and a yeast transcriptional terminator sequence to the 3′ end of CB2. MMY23 expresses a yeast/mammalian chimeric G-protein alpha subunit in which the C-terminal 5 amino acids of Gpa1 are replaced with the C-terminal 5 amino acids of human Gαi3 (as described in Brown et al. (2000), Yeast 16:11-22). Cells were grown at 30° C. in liquid Synthetic Complete (SC) yeast media (Guthrie and Fink (1991), Methods in Enzymology, Vol. 194) lacking uracil, tryptophan, adenine and leucine to late logarithmic phase (approximately 6 OD600/ml).
Agonists were prepared as 10 mM stocks in DMSO. EC50 values (the concentration required to produce 50% maximal response) were estimated using dilutions of between 3- and 5-fold (BiomekFX, Beckman) into DMSO. Agonist solutions in DMSO (1% final assay volume) were transferred into black, clear bottom, microtitre plates from NUNC (96- or 384-well). Cells were suspended at a density of 0.2 OD600/ml in SC media lacking histidine, uracil, tryptophan, adenine and leucine and supplemented with 10 mM 3-aminotriazole, 0.1M sodium phosphate pH 7.0, and […] fluorescein di-β-D-glucopyranoside (FDGlu). This mixture (50 ul per well for 384-well plates, 200 ul per well for 96-well plates) was added to agonist in the assay plates (Multidrop 384, Labsystems). After incubation at 30° C. for 24 hours, fluorescence resulting from degradation of FDGlu to fluorescein due to exoglucanase, an endogenous yeast enzyme produced during agonist-stimulated cell growth, was determined using a Spectrofluor microtitre plate reader (Tecan; excitation wavelength: 485 nm; emission wavelength: 535 nm). Fluorescence was plotted against compound concentration an iteratively curve fitted using a four parameter fit to generate a concentration effect value. Efficacy (Emax) was calculated from the equation
Emax=Max[compound X]−Min[compound X]/Max[HU210]−Min[HU210]×100%
where Max[compound X] and Min[compound X] are the fitted maximum and minimum respectively from the concentration effect curve for compound X, and Max[HU210] and Min[HU210] are the fitted maximum and minimum respectively from the concentration effect curve for (6aR,10aR)-3-(1,1′-Dimethylheptyl)-6a,7,10,10a-tetrahydro-1-hydroxy-6,6-dimethyl-6H-dibenzo[b,d]pyran-9-methanol (HU210; available from Tocris). Equieffective molar ratio (EMR) values were calculated from the equation
Where EC50 [compound X] is the EC50 of compound X and EC50 [HU210] is the EC50 of HU210.

T1 sequence (P34972 whole entry): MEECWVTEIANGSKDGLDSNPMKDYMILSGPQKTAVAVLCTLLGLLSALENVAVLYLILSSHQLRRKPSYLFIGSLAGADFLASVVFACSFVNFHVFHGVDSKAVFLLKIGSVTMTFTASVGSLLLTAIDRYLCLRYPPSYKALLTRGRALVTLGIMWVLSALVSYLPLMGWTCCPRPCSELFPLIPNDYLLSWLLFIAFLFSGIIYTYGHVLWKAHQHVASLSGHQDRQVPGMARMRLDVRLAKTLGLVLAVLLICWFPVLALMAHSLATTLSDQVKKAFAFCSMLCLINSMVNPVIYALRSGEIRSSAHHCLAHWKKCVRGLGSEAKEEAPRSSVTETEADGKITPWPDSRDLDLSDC

| SMILES | Emax | EC50 |
| --- | --- | --- |
| CC(c1nc(Nc2cccc(Cl)c2)ncc1C(=O)NCC1CCOCC1)N(C)C (stereo not shown) [Example 5, 2-[(3-chlorophenyl)amino]-4-[1-(dimethylamino)ethyl]-N-(tetrahydro-2H-pyran-4-ylmethyl)-5-pyrimidinecarboxamide hydrochloride] | < 50% | > 1000 nM |
| CCc1nc(Nc2cccc(Cl)c2)ncc1C(=O)NCC1CCCCC1 [Example 3] | > 50% | < 300 nM |
| CC(C)c1nc(Nc2cccc(Cl)c2)ncc1C(=O)NCC1CCOCC1 [Example 2, 2-(3-Chlorophenylamino)-4-isopropylpyrimidin-5-carboxylic acid (tetrahydro-pyran-4-ylmethyl)-amide] | > 50% | < 300 nM |
| CC(C)c1nc(Nc2cccc(Cl)c2)ncc1C(=O)NCC1CCCCC1 [Example 1] | > 50% | < 300 nM |
| CCc1nc(Nc2cccc(Cl)c2)ncc1C(=O)NCC1CCOCC1 [Example 4, 2-(3-Chlorophenylamino)-4-ethylpyrimidin-5-carboxylic acid (tetrahydro-pyran-4-ylmethyl)-amide] | > 50% | 300 to 1000 nM |
